From patent US20230055237A1, “COMPOUNDS AND METHODS FOR THE TREATMENT OF CYSTIC FIBROSIS” (Flatley Discovery Lab, LLC, priority 2019, published 2023)

Biological target: T1, CFTR (Homo sapiens, UniProt P13569, DEL508-508)
T1 construct: Primary CF airway epithelial cells were obtained from the UNC Cystic Fibrosis Tissue Procurement and Cell Culture Core; host or cells: primary CF airway epithelial cells, differentiated at the air-liquid interface
Experiment: Equivalent current assay in primary CF airway epithelial cells (NAUC, combination with 1st site corrector FDL169 or VX-809)
Assay type: cell-based
Conditions: 37° C., 24 h; for Nauc @ 10 μM: test compound 10 μM in combination with 1st site corrector VX-809 (3 μM)

[1] = test compound 3 μM in combination with 1st site corrector VX-809 (3 μM)
[2] = test compound 1 μM in combination with 1st site corrector FDL169 (3 μM)
[3] = test compound 3 μM in combination with 1st site corrector FDL169 (3 μM)
[4] = test compound 1 μM in combination with 1st site corrector VX-809 (3 μM)

T1 sequence (P13569 with tags, fused parts or gaps DEL508-508): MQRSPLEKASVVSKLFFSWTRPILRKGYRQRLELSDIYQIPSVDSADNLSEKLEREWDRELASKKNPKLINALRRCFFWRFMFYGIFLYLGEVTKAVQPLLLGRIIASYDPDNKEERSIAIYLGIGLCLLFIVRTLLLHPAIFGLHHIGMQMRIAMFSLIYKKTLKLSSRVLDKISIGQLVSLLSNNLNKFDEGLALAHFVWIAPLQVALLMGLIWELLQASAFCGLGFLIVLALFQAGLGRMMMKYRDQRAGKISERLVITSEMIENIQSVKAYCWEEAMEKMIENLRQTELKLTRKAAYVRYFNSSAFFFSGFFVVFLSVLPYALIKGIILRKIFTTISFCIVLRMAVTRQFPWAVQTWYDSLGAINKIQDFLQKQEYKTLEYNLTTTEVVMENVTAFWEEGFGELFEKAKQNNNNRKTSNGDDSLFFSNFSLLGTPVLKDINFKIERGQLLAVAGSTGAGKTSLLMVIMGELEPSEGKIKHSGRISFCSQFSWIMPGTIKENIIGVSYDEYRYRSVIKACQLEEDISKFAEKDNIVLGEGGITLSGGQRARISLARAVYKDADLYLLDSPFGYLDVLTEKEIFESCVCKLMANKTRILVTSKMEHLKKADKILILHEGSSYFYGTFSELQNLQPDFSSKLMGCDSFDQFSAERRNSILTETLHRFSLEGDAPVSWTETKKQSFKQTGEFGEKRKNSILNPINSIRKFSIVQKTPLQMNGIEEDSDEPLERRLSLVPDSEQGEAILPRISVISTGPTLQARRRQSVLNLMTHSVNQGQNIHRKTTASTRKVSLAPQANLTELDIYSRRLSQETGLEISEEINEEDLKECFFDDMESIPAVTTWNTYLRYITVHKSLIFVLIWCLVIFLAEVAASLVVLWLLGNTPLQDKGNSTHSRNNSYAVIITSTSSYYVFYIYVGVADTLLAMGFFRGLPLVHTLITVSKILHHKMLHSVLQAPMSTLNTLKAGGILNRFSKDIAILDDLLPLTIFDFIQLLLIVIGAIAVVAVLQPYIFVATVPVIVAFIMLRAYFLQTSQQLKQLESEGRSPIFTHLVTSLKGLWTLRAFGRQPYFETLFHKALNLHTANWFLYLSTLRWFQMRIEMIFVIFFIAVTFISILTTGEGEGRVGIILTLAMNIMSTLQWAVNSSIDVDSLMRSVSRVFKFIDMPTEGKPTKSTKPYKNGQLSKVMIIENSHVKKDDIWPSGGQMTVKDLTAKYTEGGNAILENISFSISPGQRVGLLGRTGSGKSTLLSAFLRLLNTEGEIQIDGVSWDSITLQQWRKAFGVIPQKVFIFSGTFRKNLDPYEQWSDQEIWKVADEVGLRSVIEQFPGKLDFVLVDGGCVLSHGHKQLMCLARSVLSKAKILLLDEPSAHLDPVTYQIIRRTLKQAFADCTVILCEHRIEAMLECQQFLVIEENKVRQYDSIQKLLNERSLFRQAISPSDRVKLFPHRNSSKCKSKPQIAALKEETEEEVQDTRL

C[C@]1(O)CC2C(C(=O)Nc3cc(Cl)cc(Cl)c3)C(C(=O)O)C3(C(=O)Nc4c(Cl)cc(Cl)cc43)N2C1 (some centres unmarked) [Example 3]
Nauc @ 3 μM [1]: +++ (NAUC “+++” refers to an observed NAUC>170% of positive control)
Nauc @ 10 μM: +++ (NAUC “+++” refers to an observed NAUC>170% of positive control)

O=C(Nc1cc(Cl)cc(Cl)c1)C1C(C(F)(F)c2cccc(Cl)c2)NC2(C(=O)Nc3c(Cl)cc(Cl)cc32)C1C(=O)O (centres unmarked) [Example 68.b]
Nauc @ 10 μM: + (NAUC “+” refers to an observed NAUC <140% of positive control)

Cn1ccc2cc(NC(=O)[C@H]3[C@H]4CC(F)(F)CN4[C@]4(C(=O)Nc5c(Cl)cc(Cl)cc54)[C@H]3C(=O)O)ccc21 [Example 137]
Nauc @ 1 μM [2]: + (NAUC “+” refers to an observed NAUC <140% of positive control)
Nauc @ 3 μM [3]: + (NAUC “+” refers to an observed NAUC <140% of positive control)

O=C(Nc1cc(Cl)cc(Cl)c1)C1CN(C(=O)Nc2ccccc2)C2(C(=O)Nc3c(Cl)cc(Cl)cc32)C1C(=O)O (centres unmarked) [Example 30]
Nauc @ 3 μM [1]: + (NAUC “+” refers to an observed NAUC <140% of positive control)
Nauc @ 10 μM: ++ (NAUC “++” refers to an observed NAUC 170-140% of positive control)

CN(C(=O)[C@H]1[C@H]2CC(F)(F)CN2[C@]2(C(=O)Nc3c(Cl)cc(Cl)cc32)[C@H]1C(=O)O)c1ccccc1C(F)(F)F [Example 176]
Nauc @ 1 μM [2]: +++ (NAUC “+++” refers to an observed NAUC>170% of positive control)
Nauc @ 3 μM [3]: +++ (NAUC “+++” refers to an observed NAUC>170% of positive control)

CN(C(=O)[C@@H]1[C@H](C(F)(F)F)NC2(C(=O)Nc3c(Cl)cc(Cl)cc32)[C@@H]1C(=O)O)c1cc(Cl)cc(Cl)c1 (single isomer, unassigned) [Example 269a]
Nauc @ 1 μM [4]: + (NAUC “+” refers to an observed NAUC <140% of positive control)
Nauc @ 3 μM [1]: + (NAUC “+” refers to an observed NAUC <140% of positive control)
Nauc @ 10 μM: + (NAUC “+” refers to an observed NAUC <140% of positive control)

O=C(Nc1cc(Cl)cc(Cl)c1)C1C2CC(F)(F)CN2C2(C(=O)Nc3c(Cl)cc(Cl)cc32)C1C(=O)NO (single isomer, unassigned) [Example 226b, 5,7-dichloro-N1′-(3,5-dichlorophenyl)-6′,6′-difluoro-N2′-hydroxy-2-oxo-1′,2′,5′,6′,7′,7a′-hexahydrospiro[indoline-3,3′-pyrrolizine]-1′,2′-dicarboxamide]
Nauc @ 1 μM [4]: + (NAUC “+” refers to an observed NAUC <140% of positive control)
Nauc @ 3 μM [1]: +++ (NAUC “+++” refers to an observed NAUC>170% of positive control)
Nauc @ 10 μM: +++ (NAUC “+++” refers to an observed NAUC>170% of positive control)

CC(C)(C)CN(C(=O)[C@H]1[C@@H](C(=O)O)[C@]2(C(=O)Nc3c(Cl)cc(Cl)cc32)N2CC(F)(F)C[C@@H]12)c1cc(Cl)cc(Cl)c1 [Example 111, (1′S,2′R,3S,7a′S)-5,7-dichloro-1-((3,5-dichlorophenyl)(neopentyl)carbamoyl)-6′,6′-difluoro-2-oxo-1′,2′,5′,6′,7′,7a′-hexahydrospiro[indoline-3,3′-pyrrolizine]-2′-carboxylic acid]
Nauc @ 1 μM [2]: + (NAUC “+” refers to an observed NAUC <140% of positive control)
Nauc @ 3 μM [3]: ++ (NAUC “++” refers to an observed NAUC 170-140% of positive control)

CC(C)(C)c1cccc(CCNC(=O)C2C3N(CCC3(F)F)C3(C(=O)Nc4c(Cl)cc(Cl)cc43)C2C(=O)O)c1 (single isomer, unassigned) [Example 267, 1′-((3-(tert-butyl)phenethyl)carbamoyl)-5,7-dichloro-7′,7′-difluoro-2-oxo-1′,2′,5′,6′,7′,7a′-hexahydrospiro[indoline-3,3′-pyrrolizine]-2′-carboxylic acid]
Nauc @ 1 μM [4]: +++ (NAUC “+++” refers to an observed NAUC>170% of positive control)
Nauc @ 3 μM [1]: +++ (NAUC “+++” refers to an observed NAUC>170% of positive control)
Nauc @ 10 μM: +++ (NAUC “+++” refers to an observed NAUC>170% of positive control)
